ChEMBL document CHEMBL4007427, “Inhibition of the Aldehyde Dehydrogenase 1/2 Family by Psoralen and Coumarin Derivatives” (J Med Chem, 2017)

Key:
Retinal dehydrogenase 2 = molecular target: T1, Retinal dehydrogenase 2 (Homo sapiens, UniProt O94788)
T1 sequence (O94788 whole entry): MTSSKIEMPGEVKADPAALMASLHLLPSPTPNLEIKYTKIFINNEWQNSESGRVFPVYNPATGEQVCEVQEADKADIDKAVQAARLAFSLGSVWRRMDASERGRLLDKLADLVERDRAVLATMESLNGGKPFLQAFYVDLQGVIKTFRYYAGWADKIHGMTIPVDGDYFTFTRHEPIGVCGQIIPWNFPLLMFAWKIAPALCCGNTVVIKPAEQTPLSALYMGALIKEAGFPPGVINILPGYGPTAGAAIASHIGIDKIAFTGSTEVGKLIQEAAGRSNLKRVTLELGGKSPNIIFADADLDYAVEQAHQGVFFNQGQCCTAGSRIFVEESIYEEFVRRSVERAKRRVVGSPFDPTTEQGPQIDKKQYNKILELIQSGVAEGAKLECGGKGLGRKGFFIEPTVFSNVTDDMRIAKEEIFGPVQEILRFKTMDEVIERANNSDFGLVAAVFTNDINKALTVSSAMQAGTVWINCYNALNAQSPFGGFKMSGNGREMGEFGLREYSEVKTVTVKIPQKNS
Description: Inhibition of full length recombinant human ALDH1A2 expressed in Escherichia coli BL21(DE3) assessed as reduction in dehydrogenase activity by measuring NAD(P)H level preincubated for 2 mins followed by addition of propionaldehyde as substrate in presence of NAD+ by spectrophotometric method

[1] = molecular target: T2, Aldehyde dehydrogenase X, mitochondrial (Homo sapiens, UniProt P30837)
T2 sequence (P30837 whole entry): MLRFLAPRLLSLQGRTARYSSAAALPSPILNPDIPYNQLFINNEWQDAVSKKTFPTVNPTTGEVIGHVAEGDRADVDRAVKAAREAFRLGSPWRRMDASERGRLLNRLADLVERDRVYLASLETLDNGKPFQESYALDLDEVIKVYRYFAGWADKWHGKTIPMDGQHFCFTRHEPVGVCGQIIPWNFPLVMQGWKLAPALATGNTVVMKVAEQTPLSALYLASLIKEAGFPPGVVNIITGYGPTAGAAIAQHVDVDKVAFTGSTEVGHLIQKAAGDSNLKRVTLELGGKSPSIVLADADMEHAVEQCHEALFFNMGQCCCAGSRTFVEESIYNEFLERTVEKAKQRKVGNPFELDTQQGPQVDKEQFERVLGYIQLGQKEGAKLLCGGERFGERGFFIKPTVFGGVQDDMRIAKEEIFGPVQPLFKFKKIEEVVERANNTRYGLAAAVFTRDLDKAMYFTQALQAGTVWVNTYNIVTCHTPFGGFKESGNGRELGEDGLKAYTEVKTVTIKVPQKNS
Description: Inhibition of full length recombinant human ALDH1B1 expressed in Escherichia coli TunerDE3 assessed as reduction in dehydrogenase activity by measuring NAD(P)H level preincubated for 2 mins followed by addition of propionaldehyde as substrate in presence of NAD+ by spectrophotometric method

[2] = molecular target: T3, Retinaldehyde dehydrogenase 3 (Homo sapiens, UniProt P47895)
T3 sequence (P47895 whole entry): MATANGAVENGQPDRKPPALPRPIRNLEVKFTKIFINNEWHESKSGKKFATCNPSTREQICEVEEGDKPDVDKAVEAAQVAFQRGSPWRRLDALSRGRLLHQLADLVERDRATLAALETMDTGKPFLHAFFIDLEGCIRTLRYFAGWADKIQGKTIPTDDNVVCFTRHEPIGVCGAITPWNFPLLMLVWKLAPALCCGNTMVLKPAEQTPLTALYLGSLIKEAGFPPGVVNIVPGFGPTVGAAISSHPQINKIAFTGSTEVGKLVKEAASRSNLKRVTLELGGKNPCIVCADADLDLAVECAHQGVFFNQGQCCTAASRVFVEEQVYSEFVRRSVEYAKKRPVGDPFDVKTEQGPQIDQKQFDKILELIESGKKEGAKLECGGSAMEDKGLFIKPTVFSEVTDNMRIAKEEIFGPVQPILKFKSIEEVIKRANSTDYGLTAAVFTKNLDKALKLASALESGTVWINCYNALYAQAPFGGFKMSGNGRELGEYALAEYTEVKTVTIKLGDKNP
Description: (§2) Inhibition of full length recombinant human ALDH1A3 expressed in Escherichia coli BL21(DE3) assessed as reduction in dehydrogenase activity by measuring NAD(P)H level preincubated for 2 mins followed by addition of propionaldehyde as substrate in presence of NAD+ by spectrophotometric method

[3] = molecular target: T4, Aldehyde dehydrogenase 1A1 (Homo sapiens, UniProt P00352)
T4 sequence (P00352 whole entry): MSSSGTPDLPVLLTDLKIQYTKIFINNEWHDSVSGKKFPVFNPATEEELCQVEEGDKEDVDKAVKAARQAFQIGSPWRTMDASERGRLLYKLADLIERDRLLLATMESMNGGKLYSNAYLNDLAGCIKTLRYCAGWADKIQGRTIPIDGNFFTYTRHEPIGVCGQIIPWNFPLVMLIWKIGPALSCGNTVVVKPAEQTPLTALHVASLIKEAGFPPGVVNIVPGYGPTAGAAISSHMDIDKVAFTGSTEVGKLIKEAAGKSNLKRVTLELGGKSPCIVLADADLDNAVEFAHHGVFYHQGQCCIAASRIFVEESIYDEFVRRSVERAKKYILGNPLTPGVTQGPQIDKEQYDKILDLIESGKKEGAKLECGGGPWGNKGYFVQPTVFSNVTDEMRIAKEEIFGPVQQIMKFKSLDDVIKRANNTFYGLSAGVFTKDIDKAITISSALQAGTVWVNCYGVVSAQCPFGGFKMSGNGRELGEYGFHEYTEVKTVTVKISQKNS
Description: Inhibition of full length recombinant human ALDH1A1 expressed in Escherichia coli BL21(DE3) assessed as reduction in dehydrogenase activity by measuring NAD(P)H level preincubated for 2 mins followed by addition of propionaldehyde as substrate in presence of NAD+ by spectrophotometric method

[4] = molecular target: T4, Aldehyde dehydrogenase 1A1; experiment: Uncompetitive inhibition of full length recombinant human ALDH1A1 expressed in Escherichia coli BL21(DE3) using propionaldehyde as substrate in presence of varying levels NAD+ by Lineweaver-Burk plot analysis
[5] = molecular target: T3, Retinaldehyde dehydrogenase 3; remark: listed apart in the source
Description: as §2

[6] = molecular target: T5, Retinaldehyde dehydrogenase 3 (Homo sapiens) (UniProt P47895); experiment: (§1) Activation of full length recombinant human ALDH1A3 expressed in Escherichia coli BL21(DE3) preincubated for 2 mins followed by addition of propionaldehyde as substrate in presence of NAD+ by spectrophotometric method relative to control
T5 sequence (whole entry): T3 sequence (P47895 whole entry)

[7] = molecular target: T3, Retinaldehyde dehydrogenase 3; experiment: Activation of full length recombinant human ALDH1A3 expressed in Escherichia coli BL21(DE3) preincubated for 2 mins followed by addition of propionaldehyde as substrate in presence of NAD+ by spectrophotometric method
[8] = molecular target: T6, Aldehyde dehydrogenase 1A1 (Homo sapiens) (UniProt P00352); experiment: as §1, with “Inhibition” for “Activation”, “ALDH1A1” for “ALDH1A3”, “BL21(DE3) assessed as reduction in dehydrogenase activity by measuring NAD(P)H level” for “BL21(DE3)”
T6 sequence (whole entry): T4 sequence (P00352 whole entry)

[9] = molecular target: T5, Retinaldehyde dehydrogenase 3 (Homo sapiens); experiment: as §1, with “Inhibition” for “Activation”, “BL21(DE3) assessed as reduction in dehydrogenase activity by measuring NAD(P)H level” for “BL21(DE3)”
[10] = molecular target: T7, Aldehyde dehydrogenase X, mitochondrial (Homo sapiens) (UniProt P30837); experiment: as §1, with “Inhibition” for “Activation”, “ALDH1B1” for “ALDH1A3”, “TunerDE3 assessed as reduction in dehydrogenase activity by measuring NAD(P)H level” for “BL21(DE3)”
T7 sequence (whole entry): T2 sequence (P30837 whole entry)

[11] = molecular target: T8, Retinal dehydrogenase 2 (Homo sapiens) (UniProt O94788); experiment: as §1, with “Inhibition” for “Activation”, “ALDH1A2” for “ALDH1A3”, “BL21(DE3) assessed as reduction in dehydrogenase activity by measuring NAD(P)H level” for “BL21(DE3)”
T8 sequence (whole entry): T1 sequence (O94788 whole entry)

## COC(=O)C(C)Oc1ccc2c(C)cc(=O)oc2c1 (centres undefined)
Retinal dehydrogenase 2
  IC50: Not Active
[1]
  IC50: Not Active
[2]
  IC50: Not Active
[3]
  IC50: Not Active

## Cc1oc2cc3oc(=O)c(CCC(=O)N4CCCCC4)c(C)c3cc2c1C
[4]
  Ki: 0.17 µM
[5]
  IC50: 14 µM

## C/C(=N\O)c1cc2cc(Br)ccc2oc1=O
Retinal dehydrogenase 2
  IC50: Not Active
[6]
  %max: 200%
[1]
  IC50: Not Active
[7]
  AC50: 35 µM
[3]
  IC50: Not Active

## CCCc1c(C)c2cc3c(C)c(C)oc3cc2oc1=O
[5]
  IC50: 0.4 µM

## CCCc1c(C)c2cc3c(C)coc3cc2oc1=O
[8]
  Imax: 60%
[5]
  IC50: 1.1 µM

## Cc1oc2cc3oc(=O)c4c(c3cc2c1C)CCC4
[8]
  Imax: 50 to 60%
[5]
  IC50: 0.17 µM
[9]
  Imax: 50 to 60%

## CCCc1cc(=O)oc2cc3oc(C)c(C)c3cc12
[6]
  %max: 200%
[7]
  AC50: 0.87 µM
[3]
  IC50: Not Active

## Cc1oc2cc3oc(=O)c(C)c(C)c3cc2c1C
[10]
  Imax: 60%
[5]
  IC50: 0.27 µM
[3]
  IC50: Not Active
[11]
  Imax: 60%
